Laboratory results as given in patent publication US20210100777A1, “HEAT SHOCK PROTEIN (HSP) INHIBITION AND MONITORING EFFECTIVENESS THEREOF” (H. LEE MOFFITT CANCER CENTER AND RESEARCH INSTITUTE, INC., priority 2013, published 2021).

Columns and labels:
[1] = test system: heat shock proteins (HSPs) in RPMI-8226 multiple myeloma cells; test: LC-MRM quantification of HSP expression before and 24 hours after 17-DMAG (Example 1); format: cell-based, human; conditions: 106 nM 17-DMAG
Experimental: Monitoring HSPs in multiple myeloma cells. RPMI-8226 multiple myeloma cells were cultured in suspension as described above with the addition of 100 units/mL penicillin/streptomycin. Stock 17-dimethylaminoethylamino-17-demethoxy-geldanamycin (17-DMAG) was dissolved in DMSO at a concentration of 10 mM. Based on prior IC50 measurements, the RPMI-8226 cells were treated with 106 nM 17-DMAG for 24 hours.
RPMI-8226 cells (n=10^6) were lysed using […] aqueous 8M urea with 100 mM ammonium bicarbonate. Protein concentration was measured by the Bradford assay and 0.38 μg of protein (equivalent to 3,750 cells) was injected for LC-MRM analysis of control and drug-treated samples. The proteins were reduced with 2 mM TCEP, alkylated with 20 mM IAA, and digested overnight in solution with trypsin at 37° C. Corresponding stable-isotope-labeled internal standard peptides were added to the samples after digestion. Then, peptides were extracted using pipette tips packed with C18 reversed-phase resin (Ziptip, Millipore; Billerica, Mass.) and concentrated to dryness by vacuum centrifugation (Speedvac, Thermo), and resuspended in aqueous 2% ACN with 0.1% formic acid prior to MS. LC-MRM was performed as described above. Quantification is achieved by using the sum of the peak areas for all detected transitions using QuanBrowser (Xcalibur, Thermo, San Jose, Calif.) or Skyline. The ratio of peak area of the endogenous peptide over corresponding internal standard was calculated for each peptide in the sample to enable absolute and relative quantification. Relative protein expression after treatment was normalized to the pretreatment control for each cell line and plotted to show the change in expression after drug treatment. Bubble plots were created using the SigmaPlot 10 (SPSS).

[2] = test system: FOXO3a in M229R and 1205LuR cells; test: Immunofluorescent staining; format: cell-based; conditions: 48 hours; XL888 300 nM, GDC-0941 3 μM
Experimental: Immunofluorescent staining. M229R and 1205LuR cells were seeded at 50% confluency onto glass coverslips in a 12 well plate and allowed to adhere overnight. […] Fixed cells were separately stained by incubating overnight with rabbit anti-BIM or anti-FOXO3a antibodies followed by staining with secondary anti-rabbit AF488. Cells were then mounted onto slides with ProLong Gold Antifade containing DAPI (Invitrogen) and imaged with a Leica confocal microscope equipped with a 40x oil immersion lens.

intratumoral HSP70 = test: LC-MRM analysis of xenograft samples; format: in vivo, BALB SCID mice; conditions: 15-days of treatment, 100 mg/kg
Experimental: Liquid chromatography, multiple reaction monitoring mass (LC-MRM) spectrometry (LC MRM) analysis. LC-MRM was performed as described in (Remily-Wood et al., Proteomics Clin. App. 5:383-96 (2011)). Protein expression was determined using the ratio of peak area of the native peptide to corresponding internal standard; normalization of tissue results was performed using GAPDH to control for cellularity (Table 9). Data were then normalized to the pretreatment (cell lines) or vehicle controls (tissue) and plotted to show the changes in expression after drug treatment.
Xenograft experiments. BALB SCID mice (The Jackson Laboratory, Bar Harbor, Me.) were subcutaneously injected with 2.5×10^6 cells per mouse (resuspended in 111 μL L-15 media, 10 mM HEPES, 37.5 μL Matrigel). Tumors were grown to approximately 100 mm^3 prior to dosing. Mice were treated with either 100 mg XL888/kg (n=5) or an equivalent volume of vehicle (10 mM HCl), 3 times per week by oral gavage. Mouse weights and tumor volumes (L×W2/2) were measured 3 times per week. Upon completion of the experiment, vehicle and drug treated tumor biopsies were processed for LC-MRM analysis (as above).

[3] = test system: vemurafenib resistant melanoma cell lines; test: Apoptosis, Annexin-V staining and flow cytometry; format: cell-based; conditions: 72 or 144 hours
Experimental: Flow cytometry. […] In some studies, RPMI7951 cells were treated with 300 nM XL888 in the presence or absence of 3 μM vemurafenib and harvested after 24, 48 and 72 hours.

melanoma cell lines = test: Colony formation assay; format: cell-based; conditions: 300 nM, up to 4 weeks; any of the cell lines
Experimental: Colony formation. Cells (1×10^4 per ml) were grown overnight before being treated with vehicle (DMSO) or XL888 (300 nM) for 4 weeks as described in (Paraiso et al., Br. J. Cancer 102:1724-30 (2010)), and relative colony density was determined by solubilizing the crystal violet dye in 10% acetic acid followed by measurement of absorbance at 450 nm.

[4] = test system: HSP90 client and apoptosis proteins in vemurafenib-resistant melanoma cell lines; test: Western blotting; format: cell-based
Description: Western blotting. Proteins were extracted and blotted for as described previously (Smalley et al., Br. J. Cancer 96:445-9 (2007)). […] The antibodies to IGF1R, PDGFRβ, ARAF, CRAF, phospho-AKT Ser473, total AKT, phospho-ERK, total ERK, cyclin D1, phospho-S6, total S6, phospho-BIM (Ser69), total BIM, HSP70 and MCL-1 were from Cell Signaling Technology (Beverly, Mass.). Anti-26S was purchased from Abcam (Cambridge, Mass.), and the antibody against COT was from Santa Cruz Biotechnology (Santa Cruz, Calif.).

SMILES: CO[C@H]1/C=C\C=C(/C)C(=O)NC2=CC(=O)C(NCCN(C)C)=C(C[C@@H](C)C[C@H](OC)[C@H](O)[C@@H](C)/C=C(\C)[C@@H]1OC(N)=O)C2=O [17-DMAG, 17-Dimethylaminoethylamino-17-demethoxygeldanamycin]
- H90B2 Post-Treatment [1]: 25.3 amol/cell
- HSPB3 Post-Treatment ([1]; peptide ADLINNLR): 0.14 amol/cell
- HSP74 Post-Treatment ([1]; peptide AFSDPFVEAEK): 0.89 amol/cell
- HS90B Post-Treatment ([1]; peptide ALLFIPR): 14.5 amol/cell
- HS90A Post-Treatment ([1]; peptide ALLFVPR): 20.9 amol/cell
- HSP72 Post-Treatment ([1]; peptide EIAEAYLGGK): 0.39 amol/cell
- HSP7C Post-Treatment ([1]; peptide GTLDPVEK): 14.9 amol/cell
- CDC37 Post-Treatment ([1]; peptide LQAEAQQLR): 0.91 amol/cell
- HSP71 Post-Treatment ([1]; peptide NQVALNPQNTVFDAK): 0.051 amol/cell
- GRP78 Post-Treatment ([1]; peptide VEIIANDQGNR): 110 amol/cell
- CDC37 Ratio ([1]; post- vs pre-treatment): 1.07
- GRP78 Ratio ([1]; post- vs pre-treatment): 2.25
- H90B2 Ratio ([1]; post- vs pre-treatment): 1.57
- HS90A Ratio ([1]; post- vs pre-treatment): 1.87
- HS90B Ratio ([1]; post- vs pre-treatment): 1.84
- HSP7C Ratio ([1]; post- vs pre-treatment): 1.93
- HSP71 Ratio ([1]; post- vs pre-treatment): 3.95
- HSP72 Ratio ([1]; post- vs pre-treatment): 1.21
- HSP74 Ratio ([1]; post- vs pre-treatment): 1.23
- HSPB3 Ratio ([1]; post- vs pre-treatment): 1.25

SMILES: CC[C@@H](C)Nc1cc(C(=O)N[C@@H]2C[C@H]3CC[C@@H](C2)N3c2ccc(C(=O)C3CC3)cn2)c(C)cc1C(N)=O [XL888, 5-((R)-sec-butylamino)-N1-((1R,3s,5S)-8-(5-(cyclopropanecarbonyl)pyridin-2-yl)-8-azabicyclo[3.2.1]octan-3-yl)-2-methylterephthalamide]
- nuclear accumulation of FOXO3a [2]: highly efficient at increasing nuclear accumulation of FOXO3a
- increase in intratumoral HSP70 expression compared to controls (intratumoral HSP70): 8.6 fold
- apoptosis ([3]; 300 nM, every cell line tested): > 66%
- apoptosis versus MEK, PI3K and MEK+PI3K inhibitors ([3]; resistance through COT, PDGFRβ overexpression and two unknown mechanisms): significantly higher levels of apoptosis than each of the other drug combinations
- colony formation (melanoma cell lines): no signs of colony formation
- 26S proteasome, Western blot ([4]; 300 nM, 48 hours): partly degrade the 26S proteasome
- BIM phosphorylation at Ser69 ([4]; 300 nM, 48 hours, all cell lines tested apart from M249R): decreased BIM phosphorylation at Ser69
- client protein degradation and signaling ([4]; 300 nM, 48 hours, all cell lines with acquired BRAF inhibitor resistance): degradation of IGF1R, PDGFRβ, ARAF, CRAF and cyclin D1 and the inhibition of AKT, ERK and S6 signaling
- BIM expression ([4]; 300 nM, 48 hours, entire cell line panel): increased BIM expression across the entire cell line panel
- HSP70 expression, Western blot ([4]; 300 nM, 48 hours, every cell line evaluated): increases in HSP70 expression
- expression of Mcl-1, Western blot ([4]; 300 nM, 48 hours, resistance through PDGFRβ, COT overexpression and two unknown mechanisms): marked decrease in the expression of Mcl-1
- COT and cyclin D1 expression ([4]; intrinsically vemurafenib-resistant RPMI7951 and WM39, respectively): degrade both COT and cyclin D1
